This experiment addresses T1, NS5B from the BK strain (genotype 1b) (Hepatitis C virus genotype 1b, UniProt P26663).
T1 construct: NS5B from the BK strain (genotype 1b) is expressed in E. coli as a protein in which the 21 C-terminal amino acids are replaced; made in house; host or cells: E. coli
Kind of experiment: Hepatitis C polymerase inhibition, NS5B BK strain, 33P-GTP filter assay. The class given is biochemical. The settings on record: Table 1A; for inhibition at 20 µM: 20 μM compound, read-out: HCV pol % inh at 20 μM; for IC50: NS5B BK strain, read-out: HCV pol BK IC50. An outline of the steps: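 Radiolabelled RNA synthesis was measured by filter capture and scintillation counting after EDTA stop. His-tagged, C-terminally truncated (Δ21) genotype 1b BK NS5B from E. coli, pre-exposed to compound for 15 min, copied a self-primed RNA template (~3 nM) with α-[33P]-GTP for 2 h at room temperature.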

Some results are limits rather than exact numbers.

The values below come from patent US7217730B2, “Method for the use of pyranoindole derivatives to treat infection with Hepatitis C virus” (Wyeth, priority 2002, dated 2007).

In general, IC50 refers to the concentration that gives 50% inhibition.

T1 sequence (P26663 2420-2989): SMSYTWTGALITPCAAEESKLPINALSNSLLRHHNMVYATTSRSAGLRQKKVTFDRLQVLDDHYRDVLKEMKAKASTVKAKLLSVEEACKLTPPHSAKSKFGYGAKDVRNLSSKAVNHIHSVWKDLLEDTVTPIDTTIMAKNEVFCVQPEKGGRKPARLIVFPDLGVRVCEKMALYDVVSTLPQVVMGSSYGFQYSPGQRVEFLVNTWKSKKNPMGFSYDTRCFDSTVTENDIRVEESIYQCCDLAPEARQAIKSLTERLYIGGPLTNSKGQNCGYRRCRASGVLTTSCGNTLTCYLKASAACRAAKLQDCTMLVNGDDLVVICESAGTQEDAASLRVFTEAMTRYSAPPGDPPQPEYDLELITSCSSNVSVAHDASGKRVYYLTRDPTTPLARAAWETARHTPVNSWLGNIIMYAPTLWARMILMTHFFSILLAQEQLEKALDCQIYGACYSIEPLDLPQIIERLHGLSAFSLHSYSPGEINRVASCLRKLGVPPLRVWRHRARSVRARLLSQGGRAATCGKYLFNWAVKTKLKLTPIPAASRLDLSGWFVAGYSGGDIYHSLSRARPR

For `CC(C)C1(CC(=O)O)OCCc2c1[nH]c1c(C(F)(F)F)cccc21` (centres unmarked) [Example 118, [1-isopropyl-8-(trifluoromethyl)-1,3,4,9-tetrahydropyrano[3,4-b]indol-1-yl]acetic acid], the inhibition at 20 µM amounted to 10% and the IC50 is above 20 µM.

For `CCCCC1(CC(=O)O)OCCc2c1[nH]c1c(C(F)(F)F)cccc21` (centres unmarked) [Example 119, [1-butyl-8-(trifluoromethyl)-1,3,4,9-tetrahydropyrano[3,4-b]indol-1-yl]acetic acid], the inhibition at 20 µM came to 31% and the IC50 is above 20 µM.

Consider `C/C=C/CCC1(CC(=O)O)OCCc2c1[nH]c1c(C(F)(F)F)cccc21` (centres unmarked) [Example 120, [1-[(3E)-pent-3-enyl]-8-(trifluoromethyl)-1,3,4,9-tetrahydropyrano[3,4-b]indol-1-yl]acetic acid], for which the inhibition at 20 µM was found to be 33% and the IC50 is above 20 µM.

With `O=C(O)CC1(c2ccccc2)OCCc2c1[nH]c1c(C(F)(F)F)cccc21` (centres unmarked) [Example 121, [1-phenyl-8-(trifluoromethyl)-1,3,4,9-tetrahydropyrano[3,4-b]indol-1-yl]acetic acid], the inhibition at 20 µM was below 5% and the IC50 was above 20 µM.

Take `CC1(CC(=O)O)OCCc2c1[nH]c1c(F)ccc(F)c21` (centres unmarked) [Example 122, (5,8-difluoro-1-methyl-1,3,4,9-tetrahydropyrano[3,4-b]indol-1-yl)acetic acid]: the inhibition at 20 µM turned out to be 5% and the IC50 was above 20 µM.

`CCC1(CC(=O)O)OCCc2c1[nH]c1c(F)ccc(F)c21` (centres unmarked) [Example 123, (1-ethyl-5,8-difluoro-1,3,4,9-tetrahydro-pyrano[3,4-b]indol-1-yl)acetic acid]: the inhibition at 20 µM stood at 51% and the IC50 was above 20 µM.

Take `CCCC1(CC(=O)O)OCCc2c1[nH]c1c(F)ccc(F)c21` (centres unmarked) [Example 124, (5,8-difluoro-1-propyl-1,3,4,9-tetrahydro-pyrano[3,4-b]indol-1-yl)acetic acid]: the inhibition at 20 µM amounted to 61% and the IC50 is 6.7 µM.

Regarding `CC(C)C1(CC(=O)O)OCCc2c1[nH]c1c(F)ccc(F)c21` (centres unmarked) [Example 125, (5,8-difluoro-1-isopropyl-1,3,4,9-tetrahydropyrano[3,4-b]indol-1-yl)acetic acid], the inhibition at 20 µM amounted to 73% and the IC50 is above 20 µM.

Regarding `CCCCC1(CC(=O)O)OCCc2c1[nH]c1c(F)ccc(F)c21` (centres unmarked) [Example 126, (1-butyl-5,8-difluoro-1,3,4,9-tetrahydropyrano[3,4-b]indol-1-yl)acetic acid], the inhibition at 20 µM was 35% and the concentration for half-maximal inhibition (IC50) was above 20 µM.

In the case of `C/C=C/CCC1(CC(=O)O)OCCc2c1[nH]c1c(F)ccc(F)c21` (centres unmarked) [Example 127, {5,8-difluoro-1-[(3E)-pent-3-enyl]-1,3,4,9-tetrahydropyrano[3,4-b]indol-1-yl}acetic acid], the inhibition at 20 µM is 24% and the IC50 was above 20 µM.

As for `O=C(O)CC1(c2ccc(C(=O)O)cc2)OCCc2c1[nH]c1c(F)ccc(F)c21` (centres unmarked) [Example 128, 4-[1-(carboxymethyl)-5,8-difluoro-1,3,4,9-tetrahydropyrano[3,4-b]indol-1-yl]benzoic acid], the inhibition at 20 µM came to 70% and the IC50 was above 20 µM.

In the case of `CC1(CC(=O)O)OCCc2c1[nH]c1c(Cl)ccc(C(F)(F)F)c21` (centres unmarked) [Example 129, [8-chloro-1-methyl-5-(trifluoromethyl)-1,3,4,9-tetrahydropyrano[3,4-b]indol-1-yl]acetic acid], the inhibition at 20 µM was 45% and the IC50 was above 20 µM.

On to `CCC1(CC(=O)O)OCCc2c1[nH]c1c(Cl)ccc(C(F)(F)F)c21` (centres unmarked) [Example 130, [8-chloro-1-ethyl-5-(trifluoromethyl)-1,3,4,9-tetrahydropyrano[3,4-b]indol-1-yl]acetic acid], for which the inhibition at 20 µM turned out to be 77% and the IC50 is 5.5 µM.
